How the values were obtained:
Format in all cases: in vivo
[1] = system: 'Midknight Valencia' sweet orange trees; test: Fruit drop after foliar spray, 'Midknight Valencia' sweet orange, Porterville (Example 1); settings: for # Fruit per Tree / % Change in # Fruit per Tree: ProTone SG, 28 days after 100% petal drop; for % Change in # Fruit per Tree: vs untreated control
Procedure: ProTone™ SG was applied to mature ‘Midknight Valencia’ sweet orange trees in a commercial orchard near Porterville (33°08′37.54″S, 18°59′35.90″E) in the Western Cape Province of South Africa. The experiment consisted of a completely randomized design and consisted of 10 single-tree replicates. S-ABA was applied as a foliar spray at 75, 150 and 300 parts per million (“ppm”) and compared to an untreated control (only water) at 2 liters per tree. All treatments were applied with a non-ionic wetting agent (Villa 51® having the active ingredient isotridecanol and available from Villa Crop Protection (Pty) Ltd) at a rate of 6 milliliters per 100 liters of water. Treatments were applied 28 days after 100% petal drop on 31 Oct. 2019. See Results in Table 1, below.

[2] = system: 'Orri' mandarin trees; test: Fruit drop after foliar spray, 'Orri' mandarin, Piketberg, open and shade-netted orchards (Example 2); settings: 150 ppm; for # Fruit per Tree / % Change in # Fruit per Tree: ProTone SG, 28 days after 100% petal drop
Procedure: ProTone™ SG was applied to mature ‘Orri’ mandarin trees in a commercial orchard near Piketberg (33°04′46.3″S 18°50′04.7″E) in the Western Cape Province of South Africa. Two trials were conducted, one in an orchard covered with permanent shade netting, and the other in an open orchard. The experiment consisted of 5 trees per plot for each of covered and open orchard. S-ABA was applied as a foliar spray at 150 ppm and compared to an untreated control at 3.4 liters per tree for the covered orchard and 2.8 liters per tree for the open orchard. All treatments were applied with Villa 51® at a rate of 6 milliliters per 100 liters of water. Treatments were applied 28 days after 100% petal drop on 29 Nov. 2021. See Results in Table 2, below.

[3] = system: 'Nadorcott' mandarin trees; test: Fruit drop after foliar spray, 'Nadorcott' mandarin, Piketberg (Example 3); settings: for # Fruit per Tree / % Change in # Fruit per Tree: 28 days after 100% petal drop; for % Change in # Fruit per Tree: vs untreated control
Procedure: ProTone™ SG or Excelero™ SL was applied to mature ‘Nadorcott’ mandarin trees in a commercial orchard near Piketberg (33°04′46.3″S 18°50′04.7″E) in the Western Cape Province of South Africa. The experiment consisted of 5 trees per plot. S-ABA in the form of ProTone™ SG was applied as a foliar spray at 18.5, 37 and 75 ppm and at 37 ppm in the form of Excelero™ SL and compared to an untreated control at 2.4 liters per tree. All treatments were applied with Villa 51® at a rate of 6 milliliters per 100 liters of water. Treatments were applied 28 days after 100% petal drop on 8 Nov. 2022. See Results in Table 3, below.

[4] = system: 'Nadorcott' mandarin trees; test: Fruit drop, 'Nadorcott' mandarin, Piketberg, all plots with ProGibb (Example 4); settings: for # Fruit per Tree / % Change in # Fruit per Tree: Excelero SL; for % Change in # Fruit per Tree: vs untreated control
Procedure: Excelero™ SL was applied to mature ‘Nadorcott’ mandarin trees in a commercial orchard near Piketberg (33°04′46.3″S 18°50′04.7″E) in the Western Cape Province of South Africa. The experiment consisted of 5 trees per plot. S-ABA was applied at 50 and 100 ppm in the form of Excelero™ SL and compared to an untreated control at 2.4 liters per tree. All plots received application of ProGibb® at 80% and 100% petal fall. All treatments were applied with Villa 51® at a rate of 6 milliliters per 100 liters of water. Treatments were applied 42 and 56 days after 100% petal drop (“DAP”) on 23 November and […], respectively. See Results in Table 4, below.

[5] = system: 'Leanri' mandarin trees; test: Fruit drop, 'Leanri' mandarin, Ashton, all plots with Falgro and girdling (Example 5); settings: for # Fruit per Tree / % Change in # Fruit per Tree: 37 ppm, 21 days after 100% petal drop; for % Change in # Fruit per Tree: vs untreated control
Procedure: Excelero™ SL was applied to mature ‘Leanri’ mandarin trees in a commercial orchard near Ashton (33°50′57″S, 20°02′15″E) in the Western Cape Province of South Africa. The experiment consisted of 5 trees per plot. S-ABA was applied at 37 ppm in the form of ProTone™ SG and Excelero™ SL and compared to an untreated control at 2.4 liters per tree. All plots received application of Falgro® at 70% and 90% petal fall and a girdling action. All treatments were applied with Villa 51® at a rate of 6 milliliters per 100 liters of water. Treatments were applied 21 days after 100% petal drop on 8 Nov. 2023. See Results in Table 5, below.

[6] = system: 'Orri' mandarin trees; test: Fruit drop, 'Orri' mandarin, Mpumalanga (Example 6); settings: for # Fruit per Tree / % Change in # Fruit per Tree: Excelero SL; for % Change in # Fruit per Tree: vs untreated control
Description: Excelero™ SL was applied to mature ‘Orri’ mandarin trees in a commercial orchard near Mpumalanga, South Africa. The experiment consisted of a completely randomized design. S-ABA was applied at 20, 40 and 80 ppm in the form of Excelero™ SL and compared to an untreated control. All treatments were applied with Villa 51® at a rate of 6 milliliters per 100 liters of water. Treatments were applied 14, 21 and 28 days after 100% petal drop (“DAP”). See Results in Table 6, below.

[7] = system: 'Midnight Valencia' sweet orange trees; test: Fruit drop, 'Midnight Valencia' sweet orange, Mpumalanga (Example 7); settings: for # Fruit per Tree / % Change in # Fruit per Tree: Excelero SL; for % Change in # Fruit per Tree: vs untreated control
Description: Excelero™ SL was applied to mature ‘Midnight Valencia’ sweet orange trees in a commercial orchard near Mpumalanga, South Africa. The experiment consisted of a completely randomized design. S-ABA was applied at 20, 40 and 80 ppm in the form of Excelero™ SL and compared to an untreated control. All treatments were applied with Villa 51® at a rate of 6 milliliters per 100 liters of water. Treatments were applied 14, 21 and 28 days after 100% petal drop (“DAP”). See Results in Table 7, below.

[8] = system: '2PH seedless' lemon trees; test: Fruit drop, '2PH seedless' lemon, Mpumalanga (Example 8); settings: for # Fruit per Tree / % Change in # Fruit per Tree: Excelero SL; for % Change in # Fruit per Tree: vs untreated control
Description: Excelero™ SL was applied to mature ‘2PH seedless’ lemon trees in a commercial orchard near Mpumalanga, South Africa. The experiment consisted of a completely randomized design. S-ABA was applied at 20, 40 and 80 ppm in the form of Excelero™ SL and compared to an untreated control. All treatments were applied with Villa 51® at a rate of 6 milliliters per 100 liters of water. Treatments were applied 14, 21 and 28 days after 100% petal drop (“DAP”). See Results in Table 8, below.

[9] = 20, 40 and 80 ppm at each of 14, 21 and 28 days after 100% petal drop

## (S)-abscisic acid [S-ABA]
[1]; 75 and 150 ppm
  effect on fruit drop as compared to untreated control: reduced fruit drop
[1]; 75 ppm foliar spray
  # Fruit per Tree: 413
  % Change in # Fruit per Tree: 11%
[1]; 150 ppm foliar spray
  # Fruit per Tree: 444
  % Change in # Fruit per Tree: 20%
[1]; 300 ppm
  effect on fruit drop as compared to untreated control: increasing fruit drop
[1]; 300 ppm foliar spray
  # Fruit per Tree: 351
  % Change in # Fruit per Tree: −5%
[2]
  effect on fruit drop as compared to untreated control: increased fruit drop
[2]; no shade (open orchard)
  # Fruit per Tree: 397
[2]; no shade (open orchard), vs untreated control (no shade)
  % Change in # Fruit per Tree: −28%
[2]; shade (permanent shade netting)
  # Fruit per Tree: 82
[2]; shade (permanent shade netting), vs untreated control (shade)
  % Change in # Fruit per Tree: −78%
[3]; 18.5 ppm, ProTone SG
  # Fruit per Tree: 793
  % Change in # Fruit per Tree: 3%
[3]; 37 and 75 ppm
  effect on fruit drop as compared to untreated control: reduced fruit drop
[3]; 37 ppm, Excelero SL
  # Fruit per Tree: 1010
  % Change in # Fruit per Tree: 32%
[3]; 37 ppm, ProTone SG
  # Fruit per Tree: 841
  % Change in # Fruit per Tree: 10%
[3]; 75 ppm, ProTone SG
  # Fruit per Tree: 909
  % Change in # Fruit per Tree: 18%
[4]; 50 and 100 ppm at both 42 and 56 days after 100% petal drop
  effect on fruit drop as compared to untreated control: reduced fruit drop
[4]; 50 ppm @ 42 DAP
  # Fruit per Tree: 412
  % Change in # Fruit per Tree: 35%
[4]; 50 ppm @ 56 DAP
  # Fruit per Tree: 316
  % Change in # Fruit per Tree: 3%
[4]; 100 ppm @ 42 DAP
  # Fruit per Tree: 387
  % Change in # Fruit per Tree: 26%
[4]; 100 ppm @ 56 DAP
  # Fruit per Tree: 322
  % Change in # Fruit per Tree: 5%
[5]; 37 ppm at 21 days after 100% petal drop
  effect on fruit drop as compared to untreated control: reduced fruit drop
[5]; Excelero SL
  # Fruit per Tree: 430
  % Change in # Fruit per Tree: 28%
[5]; ProTone SG
  # Fruit per Tree: 398
  % Change in # Fruit per Tree: 19%
[6]; [9]
  effect on fruit drop as compared to untreated control: reduced fruit drop
[6]; 20 ppm @ 14 DAP
  # Fruit per Tree: 222
  % Change in # Fruit per Tree: 17%
[6]; 20 ppm @ 21 DAP
  # Fruit per Tree: 257
  % Change in # Fruit per Tree: 36%
[6]; 20 ppm @ 28 DAP
  # Fruit per Tree: 196
  % Change in # Fruit per Tree: 4%
[6]; 40 ppm @ 14 DAP
  # Fruit per Tree: 222
  % Change in # Fruit per Tree: 17%
[6]; 40 ppm @ 21 DAP
  # Fruit per Tree: 234
  % Change in # Fruit per Tree: 24%
[6]; 40 ppm @ 28 DAP
  # Fruit per Tree: 250
  % Change in # Fruit per Tree: 32%
[6]; 80 ppm @ 14 DAP
  # Fruit per Tree: 255
  % Change in # Fruit per Tree: 35%
[6]; 80 ppm @ 21 DAP
  # Fruit per Tree: 213
  % Change in # Fruit per Tree: 13%
[6]; 80 ppm @ 28 DAP
  # Fruit per Tree: 207
  % Change in # Fruit per Tree: 10%
[7]; [9]
  effect on fruit drop as compared to untreated control: reduced fruit drop
[7]; 20 ppm @ 14 DAP
  # Fruit per Tree: 239
  % Change in # Fruit per Tree: 19%
[7]; 20 ppm @ 21 DAP
  # Fruit per Tree: 263
  % Change in # Fruit per Tree: 31%
[7]; 20 ppm @ 28 DAP
  # Fruit per Tree: 245
  % Change in # Fruit per Tree: 22%
[7]; 40 ppm @ 14 DAP
  # Fruit per Tree: 221
  % Change in # Fruit per Tree: 10%
[7]; 40 ppm @ 21 DAP
  # Fruit per Tree: 246
  % Change in # Fruit per Tree: 22%
[7]; 40 ppm @ 28 DAP
  # Fruit per Tree: 230
  % Change in # Fruit per Tree: 14%
[7]; 80 ppm @ 14 DAP
  # Fruit per Tree: 255
  % Change in # Fruit per Tree: 27%
[7]; 80 ppm @ 21 DAP
  # Fruit per Tree: 256
  % Change in # Fruit per Tree: 27%
[7]; 80 ppm @ 28 DAP
  # Fruit per Tree: 285
  % Change in # Fruit per Tree: 42%
[8]; [9]
  effect on fruit drop as compared to untreated control: reduced fruit drop
[8]; 20 ppm @ 14 DAP
  # Fruit per Tree: 107
  % Change in # Fruit per Tree: 23%
[8]; 20 ppm @ 21 DAP
  # Fruit per Tree: 105
  % Change in # Fruit per Tree: 21%
[8]; 20 ppm @ 28 DAP
  # Fruit per Tree: 112
  % Change in # Fruit per Tree: 29%
[8]; 40 ppm @ 14 DAP
  # Fruit per Tree: 114
  % Change in # Fruit per Tree: 31%
[8]; 40 ppm @ 21 DAP
  # Fruit per Tree: 121
  % Change in # Fruit per Tree: 39%
[8]; 40 ppm @ 28 DAP
  # Fruit per Tree: 119
  % Change in # Fruit per Tree: 37%
[8]; 80 ppm @ 14 DAP
  # Fruit per Tree: 109
  % Change in # Fruit per Tree: 25%
[8]; 80 ppm @ 21 DAP
  # Fruit per Tree: 117
  % Change in # Fruit per Tree: 34%
[8]; 80 ppm @ 28 DAP
  # Fruit per Tree: 125
  % Change in # Fruit per Tree: 44%
